The source of these data is publication PMC5294416, “Novel peptides for deciphering structural and signalling functions of E-cadherin in mouse embryonic stem cells” (Scientific Reports, 2017).

The test system of series [1] is OCT4 protein in wtD3 mESCs. Briefly: Immunofluorescence microscopy analysis of OCT4 protein expression with pathway inhibitors. Conditions: wtD3 mESCs, no peptide, after 5 days. The series is classed as cell-based, mouse. How it is done: (§1) Unless otherwise stated, mESC lines were grown on gelatinised tissue culture grade 6-well plates at 37 °C/5% CO2, as previously described. mESCs cells were treated with 10 μM peptide in mESC culture medium which was replenished every 24 h. Inhibition of specific pathways in mESCs was achieved by incubation with 10 μM LY294002 (PI3K inhibitor), PD9805 (MEK inhibitor) and SB431542 (TGFβ1 R inhibitor).
Monolayer cultured mESCs were fixed in situ in 4% w/v PFA in PBS for 30 minutes at room temperature, washed twice with PBS and blocked with 1% goat serum in 0.1% w/v BSA, 0.1% Triton X-100 in PBS for 30 minutes. Cells were incubated in the appropriate primary antibody in goat blocking buffer for two hours at RT. Cells were washed three times in PBS and incubated in the appropriate Alexa fluor-488 or −546 conjugated secondary antibody at RT for 1 hour in the dark. Cells were washed three times with PBS, mounted in 4′6-diamidino-2-phenylindole (DAPI) (Vector Laboratories) and visualized using a Leica DM6000B fluorescence microscope (Leica Microsystems) and processed using Leica LAS X Core software (Leica Microsystems). Primary antibodies: anti-Nanog, 1:200 dilution (ab80892, Abcam Plc, Cambridge, UK); anti-Oct4, 1:200 dilution (ab19857, Abcam Plc, Cambridge, UK). For immunofluorescence microscopy analysis of fluorescent-tagged peptides, cells were incubated in 500 μM peptide in cell culture medium for 15 minutes, washed twice in ice cold PBS and mounted with Vectorshield containing DAPI. Cells were visualized using a Leica DM6000B fluorescence microscope (Leica Microsystems) and processed using Leica LAS X Core software (Leica Microsystems).
Images were imported into ImageJ and fluorescence intensity measured using the Analyse > Measure function on areas selected using the rectangular or oval selection icons.

Series [2] concerns the target T1, recombinant mouse E-Cadherin Fc Chimera (Mus musculus, UniProt P09803).
T1 construct: purchased R&D Systems
Nature of the series: Biacore SPR equilibrium binding analysis (affinity capture). Conditions: equilibrium analysis using affinity capture on HTE chip, peptide stock in water, average of three runs, running buffer HBS/0.02% Tween/2 mM CaCl2/1 mM MgCl2. How it is done: Biacore SPR analysis was used to measure the interaction between peptides and recombinant mouse E-Cadherin Fc Chimera (R&D Systems). Analytes were passed over an HTE chip with surface bound His-tagged Recombinant Mouse E-Cadherin Fc Chimera (R&D Systems). The kinetics of interaction, i.e. the rates of complex formation (ka) and dissociation (kd), were determined and Integrin α4β7 protein was used as a control. Analysis was performed by the Biomolecular Analysis Core Facility (The University of Manchester, UK) on a Proteon XPR-36 protein interaction array system (Bio-Rad) using a HTE chip for high capacity His-tagged protein capture (Bio-Rad). Equilibrium analysis runs were performed three times and an average KD was calculated. Running buffer: HBS/0.02%, Tween/2 mM, CaCl2/1 mM MgCl2.

Series [3] in a line: Water solubility of peptides. The format is physicochemical. How it is done:
All peptides were synthesised by Severn Biotech Ltd (UK) as a lyophilized powder. Peptides were solubilised to a stock solution of 100 mM in ddH20, unless otherwise stated. Peptides were tagged with a Fluorescin-5(6) molecule at the NH2-terminus, separated by a Nova linker molecule, and assessed for activity prior to use (inhibition of cell-cell contact).

The next series relates to wtD3 mESCs. Briefly: Loss of cell-cell contact, phase contrast microscopy. The format is cell-based, mouse. Conditions: for Effect on cell-cell contact (in words): wtD3 mESCs, 10 μM peptide, 24 h, phase contrast. How it is done: as §1
The test system of another series is wtD3 and Ecad−/− mESCs. Nature of the series: Binding of fluorescent-tagged peptides to wtD3 versus Ecad−/− mESCs. The format is cell-based, mouse. As to conditions: fluorescein-tagged peptide, 500 μM, 15 minutes, 37 °C, immunofluorescence microscopy / flow cytometry. How it is done: D3 and Ecad^−/− mESCs were treated with Epep-F or EpepW2R-F at concentrations of 0 (control), 5, 10, 25, 50 and 500 μM in culture medium as a monolayer on ice. Ice cold conditions were utilised to minimise endocytosis of fluorescent tagged peptide. Cells were harvested using cell dissociation buffer, centrifuged and washed with PBS and fixed in 500 μl 1% w/v paraformaldehyde (PFA) in PBS for analysis using a FACSCalibur (BD Biosciences, California, USA). Viable cells were gated using forward scatter and side scatter and all data shown represents quantification of the fluorescence emitted by this population.
Monolayer cultured mESCs were fixed in situ in 4% w/v PFA in PBS for 30 minutes at room temperature, washed twice with PBS and blocked with 1% goat serum in 0.1% w/v BSA, 0.1% Triton X-100 in PBS for 30 minutes. Cells were incubated in the appropriate primary antibody in goat blocking buffer for two hours at RT. […] Cells were washed three times with PBS, mounted in 4′6-diamidino-2-phenylindole (DAPI) (Vector Laboratories) and visualized using a Leica DM6000B fluorescence microscope (Leica Microsystems) and processed using Leica LAS X Core software (Leica Microsystems). […] Cells were visualized using a Leica DM6000B fluorescence microscope (Leica Microsystems) and processed using Leica LAS X Core software (Leica Microsystems). […]

Primed or numbered codes have the meaning given here. Ends that are not written are not given here. FITC′ = fluorescein-5(6)-isothiocyanate; Nova linker = not defined here

On to `Cc1c[nH]c(/C=C2\C(=O)Nc3ccccc32)c1CCC(=O)O` [SU5402], for which, in series [1], the “OCT4 protein expression, inhibitor with vehicle control” value was “maintained expression of OCT4 protein”. As usually defined, the Kd is the equilibrium constant for the complex coming apart. On to SWEAYYPLRANL [EpepL4A], for which the Kd in series [2] worked out at 3.61 µM. With “SWELYYRLRANL-NH2 (C-terminus assumed) [EpepP7R]”, in series [3] (100 mM stock), the “solvent required for complete solubilization” value was 10%v/v DMSO/H2O. Also, the solubility in water in series [3] (lyophilized powder, stock in water) was less than 100 mM. In the series with wtD3 mESCs (mESCs, 10 μM, Fig. 6a summary), the “Loss of cell-cell contact (10μM)?” value is “YES”. The “Effect on cell-cell contact (in words)” value in the series on wtD3 mESCs was “Abrogation of E-cadherin mediated cell-cell contact was observed with EpepP7R (Fig. 5c and Figure S1b), although cell dissociation was reduced compared to Epep”. SWALYYPLRANL [EpepE3A]: the Kd in series [2] was 6.9 µM. The same measure, in the same setting: as for SWELAYPLRANL [EpepY5A], the figure is 8.82 µM. Take “Epep-F: Epep with fluorescein-5(6)-isothiocyanate label conjugated to the NH2-terminus via a Nova linker ({FITC′-Nova linker}-SWELYYPLRANL; reading uncertain)”: the “Binding of fluorescent-tagged peptide to wtD3 versus Ecad−/− mESCs” value in the series with wtD3 and Ecad−/− mESCs was “preferential binding to wtD3 ESCs”. Also, the “Effect on cell-cell contact (in words)” value in the series on wtD3 mESCs is listed as “loss of cell-cell contact”. With `NC(=O)c1ccc(-c2nc(-c3ccc4c(c3)OCO4)c(-c3ccccn3)[nH]2)cc1` [SB431542], the “OCT4 protein expression, inhibitor with vehicle control” value in series [1] was “maintained expression of OCT4 protein”. SAELYYPLRANL [EpepW2A]: the Kd in series [2] was found to be 55 µM. On the same count and under the same terms, under SWELYAPLRANL [EpepY6A] stands 21.4 µM.
